Consider five compounds from article PMC10290391, “Targeted degradation of ⍺-synuclein aggregates in Parkinson’s disease using the AUTOTAC technology” (Molecular Neurodegeneration, 2023).

Series [1] is described as follows: Pharmacokinetics of ATL compounds after oral administration in ICR male mice. The conditions noted are these: 5 mg/kg oral. It is filed as in vivo. How it is done: Supplementary file 13024_2023_630_MOESM1_ESM.eps: Additional file 1: Supplementary figure 1. Drug profiles of ATL and Autotac compounds. A, drug profiles of ATL compounds. Tissue concentrations and oral bioavailability were measured in ICR male mice upon 5 mg/kg oral administration of each ATL compound. B, structures of ATC161~164. C, Pharmacokinetic study of ATC161 conducted in male ICR mice otherwise indicated. M.W. represents molecular weight. The plasma exposure and the half-life were determined upon either POor IPATC161 administration. The drug tissue exposure was determined in Tau301L BiFC mice. IV refers to intravenous injection.

Series [2] has as its system HEK293A cells transduced with h-α-syn PFFs. In words: Immunocytochemistry in HEK293A cells transduced with h-α-syn PFFs. The conditions noted are these: 1 μM, 24 h. Type of series: cell-based, human. As for the experimental part:
Recombinant human α-syn (1–140) were obtained from NKMAX (SNA2001L). In vitro fibrillization was performed by diluting recombinant α-syn monomers to 1 mg/mL in sterile PBS, then incubating at 37 °C with constant agitation at 1,000 rpm for seven days. The fibrillization was verified by thioflavin T and sedimentation assays. The ability to form phospho-α-syn (S129) was also assessed by immunocytochemistry. In addition, to determine whether the generated PFFs act as seeds to accumulate endogenous α-syn, an adenovirus that expresses c-Myc-His-tagged human α-syn (gifted from lab of S.J.L) was used to infect cultured cells at an MOI of 10, followed by a fractionation assay. The administration of PFFs into 293A cells was done with protein delivery reagent (BioPORTER QuikEase Protein Delivery Kit, Sigma) following the provider’s instruction. The mouse α-syn PFFs were obtained from StressMarq (SPR-324). Prior to treatment, PFFs were sonicated at 20% amplitude, 1 s pulse on and off for 30 s (SONICS Vibra Cell sonicator, Merck Z412619). For cells, α-syn monomers and PFFs were transduced at 1 µg/mL.
Cells were fixed with 4% paraformaldehyde (PFA) for 20 min at room temperature, followed by permeabilization with 0.1% Triton X-100 buffer for 15 min. The cells were blocked with 2% bovine serum albumin (BSA) in PBS for 1 h at room temperature. Then, the cells were incubated with primary antibodies diluted in the blocking buffer overnight at 4 °C. After washing with PBS, the slides were incubated with AlexaFluor-conjugated secondary antibodies for 1 h at room temperature. After mounting the slides with mounting solution containing DAPI, the images were captured on an LSM700 confocal microscopy (Carl Zeiss).

A further series addresses T1, p62 and α-syn aggregates (Homo sapiens, UniProt P37840+Q13501).
T1 construct: Recombinant human α-syn (1–140) were obtained from NKMAX (SNA2001L); endogenous in cells; host or cells: HEK293A cells transduced with h-α-syn PFFs
Nature of the series: Proximity ligation assay (PLA) of p62 and α-syn in HEK293A cells. The conditions noted are these: α-syn PFF-transduced cells; 1 μM, 6 h. It is filed as cell-based. How it is done: Proximity ligation assays were conducted using a PLA kit (Sigma-Aldrich) according to the manufacturer’s protocol. 293A Cells were seeded on coverslips and cultured for 24 h. After fixation with 4% PFA, the cells were permeabilized with 0.1% Triton X-100. The cells were incubated with antibodies for p62 (Abcam; ab56319) and alpha-synuclein aggregates (Abcam; ab209538) overnight at 4 °C. After washing with PLA washing buffer, the cells were hybridized, ligated and amplified by rolling circle. Coverslips were mounted on slides using mounting medium containing DAPI, and the images were captured by confocal microscopy (Zeiss).

The test system of another series is p62. In words: p62 self-oligomerization and LC3 synthesis/lipidation by ATLs (in vitro p62 aggregation assay, rat cortex primary neurons). Type of series: cell-based. Conditions: ATL7, ATL13, ATL21 compared; 1 μM, 24 h in neurons, 1 mM in lysates.
A short description of another series: Solubility. It is filed as physicochemical. Conditions: pH 7.4.
Another series can be described thus: Plasma stability. It is filed as in vitro ADME. Conditions: after 120 min.
In another series the target is Tyr residues of α-syn. Also noted: method as in PMID 15096521. Conditions: cited from earlier work.
Another series addresses α-syn amyloids. Also noted: method as in PMID 17597573. Conditions: cited from earlier work.

In brackets after ≈: the same amount, converted by molar mass.

Usually solubility stands for the concentration that dissolves in the medium under given conditions. Low readings indicate little dissolved substance, high ones much dissolved substance. The term Kd denotes a measure of binding affinity in units of concentration.

Consider `OCCNCc1ccc(OCc2ccccc2)c(OCCCc2ccccc2)c1` [ATL7, 2-((4-(benzyloxy)-3-(3-phenylpropoxy)benzyl)amino)ethan-1-ol], for which the AUClast in brain in series [1] was 722.9 ng·h/g. Besides, the Kp in series [1] (mouse, brain and plasma, brain vs plasma AUClast, read-out: B/P ratio) was roughly 3. The “increase in number of p62+LC3+ colocalizing puncta” value in series [2] is recorded as “approximately 81%”. In series [2] (absence and presence of bafilomycin A1), the “targeting of α-syn to LC3+ autophagic membranes” value is given as “did not show significant activities”. Moreover, the “interaction between p62 and α-syn aggregates (PLA puncta)” value on p62 and α-syn aggregates was “failed to enhance the interaction between p62 and α-syn aggregates”. In addition, in the series with p62, the “relative activity to induce p62 self-oligomerization and LC3 synthesis and lipidation” value was “highest activities”.

In turn, `OCCNCc1cccc(OCc2ccc(F)cc2)c1` [ATL13, 2-((3-((4-fluorobenzyl)oxy)benzyl)amino)ethan-1-ol] registered a solubility in “Solubility” of 106 µg/mL (≈ 383 µM). Further, the “plasma stability, remaining” value in the series “Plasma stability” was 96.3%.

`OCCNC[C@@H](O)COc1ccc(OCc2ccc(F)cc2)c(OCc2ccc(F)cc2)c1` [ATL21, (R)-1-(3,4-bis((4-fluorobenzyl)oxy)phenoxy)-3-((2hydroxyethyl)amino)propan-2-ol]: the AUC(0-t) in series [1] (mouse, plasma, read-out: oral bioavailability, AUClast) came out at 2590 ng·h/mL.

In the case of `O=c1cc(-c2ccccc2)oc2cc(O)c(O)c(O)c12` [baicalein], on Tyr residues of α-syn, the dissociation constant Kd is 500 nM.

As for `Oc1ccc(/C=C/c2cc(O)cc(O)c2)cc1` [resveratrol], at α-syn amyloids, the Kd was 36.8 µM.
